Measured values: paper PMC5218480 (PLoS ONE, 2017)

System: MV-4-11 cells
Assay: Gene expression microarray analysis (Affymetrix PrimeView) and GSEA
Assay type: cell-based, human
Set-up: RFU PODN (11730768_x_at) / Fold change /veh PODN (11730768_x_at) / RFU LINC00158 (11744669_a_at) / Fold change /veh LINC00158 (11744669_a_at) / RFU DUSP10 (11751237_a_at) / Fold change /veh DUSP10 (11751237_a_at) / RFU ID3 (11757404_x_at) / Fold change /veh ID3 (11757404_x_at) / RFU PLEKHG5 (11737974_s_at) / Fold change /veh PLEKHG5 (11737974_s_at) / RFU LRRC4B (11730491_at) / Fold change /veh LRRC4B (11730491_at) / RFU GIMAP4 (11747438_a_at) / Fold change /veh GIMAP4 (11747438_a_at) / RFU KRT8 (11758183_x_at) / Fold change /veh KRT8 (11758183_x_at) / RFU CNN1 (11734310_a_at) / Fold change /veh CNN1 (11734310_a_at) / RFU VPS37D (11726825_at) / Fold change /veh VPS37D (11726825_at) / RFU C10orf10 (11716522_x_at) / Fold change /veh C10orf10 (11716522_x_at) / RFU KIR2DL2 /// KIR2DL4 /// KIR2DL5A /// KIR2DL5B /// KIR2DS1 /// KIR2DS2 /// KIR2DS3 /// KIR2DS4 /// KIR3DL3 /// KIR3DL3 /// KIR3DS1 (11738374_at) / Fold change /veh KIR2DL2 /// KIR2DL4 /// KIR2DL5A /// KIR2DL5B /// KIR2DS1 /// KIR2DS2 /// KIR2DS3 /// KIR2DS4 /// KIR3DL3 /// KIR3DL3 /// KIR3DS1 (11738374_at) / RFU C1QL1 (11718748_at) / Fold change /veh C1QL1 (11718748_at) / RFU TMPRSS4 (11747572_a_at) / Fold change /veh TMPRSS4 (11747572_a_at) / RFU HAMP (11756126_x_at) / Fold change /veh HAMP (11756126_x_at) / RFU RNFT2 (11725882_a_at) / Fold change /veh RNFT2 (11725882_a_at) / RFU NR4A2 (11747474_a_at) / Fold change /veh NR4A2 (11747474_a_at) / RFU ABCC12 (11746883_a_at) / Fold change /veh ABCC12 (11746883_a_at) / RFU TMEM136 (11760407_x_at) / Fold change /veh TMEM136 (11760407_x_at) / RFU CLDN22 /// WWC2 (11732394_at) / Fold change /veh CLDN22 /// WWC2 (11732394_at) / RFU HLA-DPB1 (11760878_x_at) / Fold change /veh HLA-DPB1 (11760878_x_at) / RFU SPINT1 (11716480_a_at) / Fold change /veh SPINT1 (11716480_a_at) / RFU GAP43 (11754022_s_at) / Fold change /veh GAP43 (11754022_s_at) / RFU A4GNT (11735810_at) / Fold change /veh A4GNT (11735810_at) / RFU PRB3 (11715151_x_at) / Fold change /veh PRB3 (11715151_x_at) / RFU TUBB4B (11761932_at) / Fold change /veh TUBB4B (11761932_at) / RFU CAPN14 (11732068_a_at) / Fold change /veh CAPN14 (11732068_a_at) / RFU TMCC2 (11721928_a_at) / Fold change /veh TMCC2 (11721928_a_at) / RFU IRGQ (11745062_a_at) / Fold change /veh IRGQ (11745062_a_at) / RFU FAM174B (11720279_a_at) / Fold change /veh FAM174B (11720279_a_at) / RFU TMPRSS4 (11748680_a_at) / Fold change /veh TMPRSS4 (11748680_a_at) / RFU FAM212B (11763350_a_at) / Fold change /veh FAM212B (11763350_a_at) / RFU PLEKHG5 (11743358_a_at) / Fold change /veh PLEKHG5 (11743358_a_at) / RFU ZSCAN30 (11745921_a_at) / Fold change /veh ZSCAN30 (11745921_a_at) / RFU CMKLR1 (11741424_a_at) / Fold change /veh CMKLR1 (11741424_a_at) / RFU LOC101060620 /// MAPK8IP1 (11723275_at) / Fold change /veh LOC101060620 /// MAPK8IP1 (11723275_at) / RFU SPTSSB (11747773_x_at) / Fold change /veh SPTSSB (11747773_x_at) / RFU PRSS12 (11739890_at) / Fold change /veh PRSS12 (11739890_at) / RFU BIN1 (11741810_x_at) / Fold change /veh BIN1 (11741810_x_at) / RFU WNT11 (11732464_a_at) / Fold change /veh WNT11 (11732464_a_at) / RFU C10orf10 (11716521_a_at) / Fold change /veh C10orf10 (11716521_a_at) / RFU C5orf56 (11738089_at) / Fold change /veh C5orf56 (11738089_at) / RFU CYB561 (11721691_x_at) / Fold change /veh CYB561 (11721691_x_at) / RFU ANKRD19P (11752326_a_at) / Fold change /veh ANKRD19P (11752326_a_at) / RFU OR2T12 /// OR2T33 /// OR2T8 (11738714_s_at) / Fold change /veh OR2T12 /// OR2T33 /// OR2T8 (11738714_s_at) / RFU VCAN (11748164_a_at) / Fold change /veh VCAN (11748164_a_at) / RFU JSRP1 (11732532_at) / Fold change /veh JSRP1 (11732532_at) / RFU KRTAP10-11 (11738290_x_at) / Fold change /veh KRTAP10-11 (11738290_x_at) / RFU MYO3A (11730013_a_at) / Fold change /veh MYO3A (11730013_a_at) / RFU EBF3 (11725865_a_at) / Fold change /veh EBF3 (11725865_a_at) / RFU CAMK2N1 (11719241_x_at) / Fold change /veh CAMK2N1 (11719241_x_at) / RFU C5orf56 (11738088_a_at) / Fold change /veh C5orf56 (11738088_a_at) / RFU OLFML3 (11715873_a_at) / Fold change /veh OLFML3 (11715873_a_at) / RFU LOC100653217 /// NTM (11731650_a_at) / Fold change /veh LOC100653217 /// NTM (11731650_a_at) / RFU MAPK11 (11762145_a_at) / Fold change /veh MAPK11 (11762145_a_at) / RFU FIZ1 (11724087_x_at) / Fold change /veh FIZ1 (11724087_x_at) / RFU OASL (11726364_x_at) / Fold change /veh OASL (11726364_x_at) / RFU SOX15 (11748057_x_at) / Fold change /veh SOX15 (11748057_x_at) / RFU CD79A (11719716_a_at) / Fold change /veh CD79A (11719716_a_at) / RFU HIST1H1D (11736915_at) / Fold change /veh HIST1H1D (11736915_at) / RFU CASKIN2 (11723855_a_at) / Fold change /veh CASKIN2 (11723855_a_at) / RFU LOC730098 (11760151_x_at) / Fold change /veh LOC730098 (11760151_x_at) / RFU OR4N2 (11742367_at) / Fold change /veh OR4N2 (11742367_at) / RFU PRRT2 (11749266_a_at) / Fold change /veh PRRT2 (11749266_a_at) / RFU SNX32 (11753110_a_at) / Fold change /veh SNX32 (11753110_a_at) / RFU CDHR5 (11726645_a_at) / Fold change /veh CDHR5 (11726645_a_at) / RFU RCAN1 (11760418_a_at) / Fold change /veh RCAN1 (11760418_a_at) / RFU FAM167A (11723789_a_at) / Fold change /veh FAM167A (11723789_a_at) / RFU FAM26E (11764081_at) / Fold change /veh FAM26E (11764081_at) / RFU ISYNA1 (11749810_s_at) / Fold change /veh ISYNA1 (11749810_s_at) / RFU ACY1 (11761880_at) / Fold change /veh ACY1 (11761880_at) / RFU 11764098_at / Fold change /veh 11764098_at / RFU SAMD14 (11745864_x_at) / Fold change /veh SAMD14 (11745864_x_at) / RFU NPB (11741838_a_at) / Fold change /veh NPB (11741838_a_at) / RFU TMPRSS6 (11731388_a_at) / Fold change /veh TMPRSS6 (11731388_a_at) / RFU KRTAP10-2 (11738614_at) / Fold change /veh KRTAP10-2 (11738614_at) / RFU ARHGAP8 /// PRR5-ARHGAP8 (11727945_x_at) / Fold change /veh ARHGAP8 /// PRR5-ARHGAP8 (11727945_x_at) / RFU KRTAP5-7 /// NADSYN1 (11734609_at) / Fold change /veh KRTAP5-7 /// NADSYN1 (11734609_at) / RFU RASL12 (11751679_a_at) / Fold change /veh RASL12 (11751679_a_at) / RFU CDKN2B (11736163_a_at) / Fold change /veh CDKN2B (11736163_a_at) / RFU PRF1 (11729649_at) / Fold change /veh PRF1 (11729649_at) / RFU, ZNF638 /// ZNF638-IT1 / Fold change vs veh, ZNF638 /// ZNF638-IT1 / RFU, PANK3 / Fold change vs veh, PANK3 / RFU, SH3YL1 / Fold change vs veh, SH3YL1 / RFU, ZEB2 / Fold change vs veh, ZEB2 / RFU, NRIP1 / Fold change vs veh, NRIP1 / RFU, PTTG1IP / Fold change vs veh, PTTG1IP / RFU, CAPN2 / Fold change vs veh, CAPN2 / RFU, MED14 / Fold change vs veh, MED14 / RFU, SNORA58 / Fold change vs veh, SNORA58 / RFU, C1orf63 / Fold change vs veh, C1orf63 / RFU, LRRFIP1 / Fold change vs veh, LRRFIP1 / RFU, NDUFAF7 / Fold change vs veh, NDUFAF7 / RFU, SLC12A2 / Fold change vs veh, SLC12A2 / RFU, IBTK / Fold change vs veh, IBTK / RFU, ESF1 / Fold change vs veh, ESF1 / Fold change vs veh, TMEM50B / RFU, TAOK1 / Fold change vs veh, TAOK1 / RFU, ACBD3 / Fold change vs veh, ACBD3 / RFU, TMA16 / Fold change vs veh, TMA16 / RFU, RWDD3 / Fold change vs veh, RWDD3 / RFU, BCAT1 / Fold change vs veh, BCAT1 / RFU, EDEM3 / Fold change vs veh, EDEM3 / RFU, TMEM33 / Fold change vs veh, TMEM33 / RFU, WDR75 / Fold change vs veh, WDR75 / RFU, AHCTF1 / Fold change vs veh, AHCTF1 / RFU, TFRC / Fold change vs veh, TFRC / RFU, ZDHHC17 / Fold change vs veh, ZDHHC17 / RFU, NOM1 / Fold change vs veh, NOM1 / RFU, ARL8B / Fold change vs veh, ARL8B / RFU, ZBTB11 / Fold change vs veh, ZBTB11 / RFU, TAMM41 / Fold change vs veh, TAMM41 / RFU, KIAA1704 /// LOC100996395 / Fold change vs veh, KIAA1704 /// LOC100996395 / RFU, ING1 / Fold change vs veh, ING1 / RFU, TRMT61B / Fold change vs veh, TRMT61B / RFU, FUBP3 / Fold change vs veh, FUBP3 / RFU, TP53 / Fold change vs veh, TP53 / RFU, TNKS2 / Fold change vs veh, TNKS2 / RFU, ZFP14 / Fold change vs veh, ZFP14 / RFU, ACTR2 / Fold change vs veh, ACTR2 / RFU, PPP3R1 / Fold change vs veh, PPP3R1 / RFU, PIK3R1 / Fold change vs veh, PIK3R1 / RFU, HNRNPA1 / Fold change vs veh, HNRNPA1 / RFU, RNF170 / Fold change vs veh, RNF170 / RFU, ZNF28 / Fold change vs veh, ZNF28 / RFU, RNGTT / Fold change vs veh, RNGTT / RFU, OGT / Fold change vs veh, OGT / RFU, BRD1 / Fold change vs veh, BRD1 / RFU, MARS / Fold change vs veh, MARS / RFU, ZNF655 / Fold change vs veh, ZNF655 / RFU, FAHD1 / Fold change vs veh, FAHD1 / RFU, BDP1 / Fold change vs veh, BDP1 / RFU, LRRCC1 / Fold change vs veh, LRRCC1 / RFU, ARID1A / Fold change vs veh, ARID1A / RFU, ZNF146 / Fold change vs veh, ZNF146 / RFU, ZNF330 / Fold change vs veh, ZNF330 / RFU, GPN3 / Fold change vs veh, GPN3 / RFU, C9orf123 / Fold change vs veh, C9orf123 / RFU, N4BP2L2 / Fold change vs veh, N4BP2L2 / RFU, ARFIP1 / Fold change vs veh, ARFIP1 / RFU, FAM179B / Fold change vs veh, FAM179B / RFU, BCL10 / Fold change vs veh, BCL10 / RFU, UHRF1BP1L / Fold change vs veh, UHRF1BP1L / RFU, BET1 / Fold change vs veh, BET1 / RFU, CNOT2 / Fold change vs veh, CNOT2 / RFU, ZNF268 / Fold change vs veh, ZNF268 / Fold change vs veh, ZNF507 / RFU, DGCR2 / Fold change vs veh, DGCR2 / RFU, WDSUB1 / Fold change vs veh, WDSUB1 / Fold change vs veh, HSP90B1 /// MIR3652 / RFU, ADSS / Fold change vs veh, ADSS / RFU, GK / Fold change vs veh, GK / RFU, ZNF148 / Fold change vs veh, ZNF148 / RFU, TAF9 / Fold change vs veh, TAF9 / RFU, SLC1A5 / Fold change vs veh, SLC1A5 / RFU, SLMO2 / Fold change vs veh, SLMO2 / RFU, ABCC4 / Fold change vs veh, ABCC4 / RFU, LOC101060439 /// RAP1B / Fold change vs veh, LOC101060439 /// RAP1B / RFU, RFX7 / Fold change vs veh, RFX7 / RFU, GTPBP10 / Fold change vs veh, GTPBP10 / RFU, CNEP1R1 / Fold change vs veh, CNEP1R1 / RFU, BIVM-ERCC5 /// ERCC5 / Fold change vs veh, BIVM-ERCC5 /// ERCC5 / RFU, ILF3 / Fold change vs veh, ILF3 / RFU 11762660_at / Fold change /veh 11762660_at / RFU VCAN (11757783_s_at) / Fold change /veh VCAN (11757783_s_at) / RFU DDX43 (11728927_at) / Fold change /veh DDX43 (11728927_at) / RFU KRT8 (11758188_x_at) / Fold change /veh KRT8 (11758188_x_at) / RFU NKD1 (11759106_at) / Fold change /veh NKD1 (11759106_at) / RFU SRD5A1 (11742802_a_at) / Fold change /veh SRD5A1 (11742802_a_at) / RFU TPSAB1 /// TPSB2 (11721975_s_at) / Fold change /veh TPSAB1 /// TPSB2 (11721975_s_at) / RFU GSTM3 (11746129_a_at) / Fold change /veh GSTM3 (11746129_a_at) / RFU IL23R (11737362_x_at) / Fold change /veh IL23R (11737362_x_at) / RFU TMEM51 (11727254_a_at) / Fold change /veh TMEM51 (11727254_a_at) / RFU PIWIL2 (11732686_x_at) / Fold change /veh PIWIL2 (11732686_x_at) / RFU ORM1 (11744905_x_at) / Fold change /veh ORM1 (11744905_x_at) / RFU CCDC152 (11743942_at) / Fold change /veh CCDC152 (11743942_at) / RFU ECM1 (11717891_a_at) / Fold change /veh ECM1 (11717891_a_at) / RFU IL23R (11748794_a_at) / Fold change /veh IL23R (11748794_a_at) / RFU TNFAIP8L3 (11732012_x_at) / Fold change /veh TNFAIP8L3 (11732012_x_at) / RFU MBOAT4 (11741988_at) / Fold change /veh MBOAT4 (11741988_at) / RFU 11764193_at / Fold change /veh 11764193_at / RFU TMEM53 (11763286_at) / Fold change /veh TMEM53 (11763286_at) / RFU MAGEB2 (11727129_at) / Fold change /veh MAGEB2 (11727129_at) / RFU TMEM200A (11744735_a_at) / Fold change /veh TMEM200A (11744735_a_at) / RFU CCDC152 (11751479_a_at) / Fold change /veh CCDC152 (11751479_a_at) / RFU FAM211A (11726209_a_at) / Fold change /veh FAM211A (11726209_a_at) / RFU RGS16 (11746705_a_at) / Fold change /veh RGS16 (11746705_a_at) / RFU VCAN (11755009_s_at) / Fold change /veh VCAN (11755009_s_at) / RFU RHOB (11743442_s_at) / Fold change /veh RHOB (11743442_s_at) / RFU RGS16 (11720943_a_at) / Fold change /veh RGS16 (11720943_a_at) / RFU RGS16 (11720944_at) / Fold change /veh RGS16 (11720944_at) / RFU, VPS4B / Fold change vs veh, VPS4B / RFU, CREB1 / Fold change vs veh, CREB1 / RFU, DNAJC13 / Fold change vs veh, DNAJC13 / RFU, GNAQ / Fold change vs veh, GNAQ / RFU, CDK5R1 / Fold change vs veh, CDK5R1 / RFU, ZRANB3 / Fold change vs veh, ZRANB3 / RFU, CUL4A / Fold change vs veh, CUL4A / RFU, CCNY / Fold change vs veh, CCNY / RFU, UFL1 / Fold change vs veh, UFL1 / RFU, COG3 / Fold change vs veh, COG3 / RFU, DIAPH2 / Fold change vs veh, DIAPH2 / RFU, SKA2 / Fold change vs veh, SKA2 / RFU, AFF3 / Fold change vs veh, AFF3 / RFU, LMF1 / Fold change vs veh, LMF1 / RFU, IPO11 / Fold change vs veh, IPO11 / RFU, DFFB / Fold change vs veh, DFFB / RFU, FOXP1 / Fold change vs veh, FOXP1 / RFU, CARD8 / Fold change vs veh, CARD8 / RFU, STRN3 / Fold change vs veh, STRN3 / RFU, ADK / Fold change vs veh, ADK / RFU, RASSF2 / Fold change vs veh, RASSF2 / RFU, WIPF1 / Fold change vs veh, WIPF1 / RFU, LARP1B / Fold change vs veh, LARP1B / RFU, RASA1 / Fold change vs veh, RASA1 / RFU, RB1 / Fold change vs veh, RB1 / RFU, PPFIA1 / Fold change vs veh, PPFIA1 / RFU, MAT2A / Fold change vs veh, MAT2A / RFU, CCT5 / Fold change vs veh, CCT5 / RFU, WDR92 / Fold change vs veh, WDR92 / RFU, CUX1 / Fold change vs veh, CUX1 / RFU, TTC7A / Fold change vs veh, TTC7A / RFU, TMEM135 / Fold change vs veh, TMEM135 / RFU, DEPTOR / Fold change vs veh, DEPTOR / RFU, CPM / Fold change vs veh, CPM / RFU, DNAJB6 / Fold change vs veh, DNAJB6 / RFU, CACNA2D3 / Fold change vs veh, CACNA2D3 / RFU, DTX4 / Fold change vs veh, DTX4 / RFU, TFCP2 / Fold change vs veh, TFCP2 / RFU, GMCL1 /// GMCL1P1 / Fold change vs veh, GMCL1 /// GMCL1P1 / RFU, AEBP2 / Fold change vs veh, AEBP2 / RFU, SNHG1 /// SNORD22 /// SNORD25 /// SNORD26 /// SNORD27 /// SNORD28 /// SNORD29 /// SNORD31 / Fold change vs veh, SNHG1 /// SNORD22 /// SNORD25 /// SNORD26 /// SNORD27 /// SNORD28 /// SNORD29 /// SNORD31 / Fold change (Aza/veh), C12orf56 (ProbeSet 11735607_a_at) / Fold change (ACY-1035/veh), C12orf56 (ProbeSet 11735607_a_at) / Fold change (Aza/veh), FGFR1OP (ProbeSet 11751329_s_at) / Fold change (ACY-1035/veh), FGFR1OP (ProbeSet 11751329_s_at) / Fold change (Aza/veh), VPS36 (ProbeSet 11739960_a_at) / Fold change (ACY-1035/veh), VPS36 (ProbeSet 11739960_a_at) / RFU SYPL1 (11715823_x_at) / Fold change /veh SYPL1 (11715823_x_at) / RFU IGFBP7 (11715501_s_at) / Fold change /veh IGFBP7 (11715501_s_at) / RFU REEP3 (11722064_at) / Fold change /veh REEP3 (11722064_at) / RFU IGLL1 (11728026_x_at) / Fold change /veh IGLL1 (11728026_x_at): dose or concentration left out as unconfirmed
Settings: ProbeSet 11717914_a_at; LIST B

Nc1ncn([C@@H]2O[C@H](CO)[C@@H](O)[C@H]2O)c(=O)n1 [azacitidine]
RFU, BIVM-ERCC5 /// ERCC5: 162.65 RFU
